Experimental data as given in US20130281397A1, “TREATMENT OF DISEASES BY EPIGENETIC REGULATION” (RVX Therapeutics Inc., priority 2012, published 2013).
Counter-ions that a name gives are not always drawn.

What follows are compounds tested against T1, Brd4 bromodomain 1 (Homo sapiens, UniProt O60885) (assay: Inhibition of binding of tetra-acetylated histone H4 and Brd4 bromodomain 1 by TR-FRET). Details: His-tagged bromodomain 200 nM, biotinylated tetra-acetylated histone H4 peptide 25-50 nM, 2 hours at room temperature.
T1 construct: made in house; host or cells: E. coli BL21(DE3)
Experimental: Proteins were cloned and overexpressed with a N-terminal 6×His tag, then purified by nickel affinity followed by size exclusion chromatography. Briefly, E. coli BL21(DE3) cells were transformed with a recombinant expression vector encoding N-terminally […] tagged bromodomains from Brd2, Brd3, or Brd4. Cell cultures were incubated at 37° C. with shaking to the appropriate density and induced overnight with IPTG. The supernatant of lysed cells was loaded onto Ni-IDA column for purification. Eluted protein was pooled, concentrated and further purified by size exclusion chromatography. Fractions representing monomeric protein were pooled, concentrated, aliquoted, and frozen at −80° C. for use in subsequent experiments.
For inhibition assays, serially diluted test compound was added to these reactions in a 0.2% final concentration of DMSO. Final buffer concentrations were 30 mM HEPES pH 7.4, 30 mM NaCl, 0.3 mM CHAPS, 20 mM phosphate pH 7.0, 320 mM KF, 0.08% BSA). […] The binding inhibitory activity was shown by a decrease in 665 nm fluorescence relative to 620 nm. IC50 values were determined from a dose response curve.

Row | SMILES | FRET activity (<50 uM)
1 | N=C(N)NCCC[C@H](N)C(=O)Oc1ccc(-c2cc3ccccc3c(=O)[nH]2)cc1 (stereo in doubt) [Example 2, 4-(1-Oxo-1,2-dihydroisoquinolin-3-yl)phenyl 2-amino-5-guanidinopentanoate trihydrochloride] | Active
2 | Cc1cc(-c2cc3ncccc3c(=O)[nH]2)cc(C)c1O [Example 5, 7-(4-hydroxy-3,5-dimethylphenyl)-1,6-naphthyridin-5(6H)-one] | Inactive
3 | COc1cc(OC)c2c(=O)[nH]c(-c3cc(C)c(OCCO)c(C)c3)cc2c1 [Example 6, 3-(4-(2-hydroxyethoxy)-3,5-dimethylphenyl)-6,8-dimethoxyisoquinolin-1(2H)-one] | Active
4 | COc1cc(OC)c2c(=O)[nH]c(-c3cc(C)c(OCCN(C)C)c(C)c3)cc2c1 [Example 7, 3-(4-(2-(dimethylamino)ethoxy)-3,5-dimethylphenyl)-6,8-dimethoxyisoquinolin-1(2H)-one] | Active
5 | COc1cc(O)nc2cc(-c3cc(C)c(O)c(C)c3)[nH]c(=O)c12 [Example 9, 2-hydroxy-7-(4-hydroxy-3,5-dimethylphenyl)-4-methoxy-1,6-naphthyridin-5(6H)-one] | Inactive
6 | COc1cc(OC)c2c(=O)[nH]c(-c3cc(C)c(O)c(C)c3)cc2n1 [Example 13, 7-(4-hydroxy-3,5-dimethylphenyl)-2,4-dimethoxy-1,6-naphthyridin-5(6H)-one] | Active
7 | COc1cc2cc(-c3cc(C)c(O)c(C)c3)n(C)c(=O)c2c(OC)c1CN1CCOCC1 [Example 14, 3-(4-hydroxy-3,5-dimethylphenyl)-6,8-dimethoxy-2-methyl-7-(morpholinomethyl)isoquinolin-1(2H)-one] | Inactive
8 | COc1cc(OC)c2c(=O)[nH]c(-c3cc(C)c(OCCN4CCOCC4)c(C)c3)cc2c1 [Example 15, 3-(3,5-dimethyl-4-(2-morpholinoethoxy)phenyl)-6,8-dimethoxyisoquinolin-1(2H)-one] | Active
9 | COc1cc(OC)c2c(=O)[nH]c(-c3cc(C)c(OCCN4CCN(C)CC4)c(C)c3)cc2c1 [Example 18, 3-(3,5-dimethyl-4-(2-(4-methylpiperazin-1-yl)ethoxy)phenyl)-6,8-dimethoxyisoquinolin-1(2H)-one] | Active
10 | COc1cc(OC)c2c(=O)[nH]c(-c3ccc(O)cc3)nc2c1 [Example 19, 2-(4-hydroxyphenyl)-5,7-dimethoxyquinazolin-4(3H)-one] | Active
11 | COc1cc(OC)c2c(=O)[nH]c(-c3ccc(OCC(=O)O)cc3)nc2c1 [Example 20, 2-(4-(5,7-dimethoxy-4-oxo-3,4-dihydroquinazolin-2-yl)phenoxy)acetic acid] | Active
12 | COc1cc(OC)c2c(=O)[nH]c(-c3ccccn3)nc2c1 [Example 21, 5,7-dimethoxy-2-(pyridin-2-yl)quinazolin-4(3H)-one] | Active
13 | COc1cc(OC)c2c(=O)[nH]c(-c3cccnc3)nc2c1 [Example 22, 5,7-dimethoxy-2-(pyridin-3-yl)quinazolin-4(3H)-one] | Active
14 | COc1cc(OC)c2c(=O)[nH]c(-c3ccncc3)nc2c1 [Example 28, 5,7-dimethoxy-2-(pyridin-4-yl)quinazolin-4(3H)-one] | Inactive
15 | Cc1cc(-c2nc3ccccc3c(=O)[nH]2)cc(C)c1OCCN1CCOCC1 [Example 29, 2-(3,5-dimethyl-4-(2-morpholinoethoxy)phenyl)quinazolin-4(3H)-one] | Inactive
16 | COc1cc(OC)c2c(=O)[nH]c(-c3ccc(N4CCOCC4)cc3)nc2c1 [Example 44, 5,7-dimethoxy-2-(4-morpholinophenyl)quinazolin-4(3H)-one] | Active
17 | COc1cc(OC)c2c(=O)[nH]c(-c3ccc(CN4CCN(C)CC4)cc3)nc2c1 [Example 54, 5,7-dimethoxy-2-(4-((4-methylpiperazin-1-yl)methyl)phenyl)quinazolin-4(3H)-one] | Active
18 | COc1cc(OC)c2c(=O)[nH]c(-c3ccc(CN4CCOCC4)cc3)nc2c1 [Example 61, 5,7-dimethoxy-2-(4-(morpholinomethyl)phenyl)quinazolin-4(3H)-one] | Active
19 | CCN1CCN(Cc2ccc(-c3nc4cc(OC)cc(OC)c4c(=O)[nH]3)cc2)CC1 [Example 62, 2-(4-((4-ethylpiperazin-1-yl)methyl)phenyl)-5,7-dimethoxyquinazolin-4(3H)-one] | Active

Row | SMILES | FRET activity (<50 uM)
20 | COc1ccc2nc(-c3cc(C)c(OCCO)c(C)c3)[nH]c(=O)c2c1 [Example 76, 2-(4-(2-hydroxyethoxy)-3,5-dimethylphenyl)-6-methoxyquinazolin-4(3H)-one] | Inactive
21 | COc1cc(OC)c2c(=O)[nH]c(-c3ccccc3Cl)nc2c1 [Example 77, 2-(2-chlorophenyl)-5,7-dimethoxyquinazolin-4(3H)-one] | Inactive
22 | COc1cccc2nc(-c3cc(C)c(OCCO)c(C)c3)[nH]c(=O)c12 [Example 78, 2-(4-(2-hydroxyethoxy)-3,5-dimethylphenyl)-5-methoxyquinazolin-4(3H)-one] | Active
23 | COc1cc(OC)c2c(=O)[nH]c(-c3cccc(-c4ccc(S(C)(=O)=O)cc4)n3)nc2c1 [Example 80, 5,7-dimethoxy-2-(6-(4-(methylsulfonyl)phenyl)pyridin-2-yl)quinazolin-4(3H)-one] | Active
24 | COc1cc(OC)c2c(=O)[nH]c(-c3cccc(C)n3)nc2c1 [Example 81, 5,7-dimethoxy-2-(6-methylpyridin-2-yl)quinazolin-4(3H)-one] | Active
25 | COc1cc(OC)c2c(=O)[nH]c(-c3cccc(-c4ccc(SC)cc4)n3)nc2c1 [Example 82, 5,7-dimethoxy-2-(6-(4-(methylthio)phenyl)pyridin-2-yl)quinazolin-4(3H)-one] | Inactive
26 | COc1cc(OC)c2c(=O)[nH]c(-c3cc(C)nc(Cl)c3)nc2c1 [Example 83, 2-(2-chloro-6-methylpyridin-4-yl)-5,7-dimethoxyquinazolin-4(3H)-one] | Inactive
27 | COc1cc(OC)c2c(=O)[nH]c(-c3cc(C)c(OC)c(C)c3)nc2c1 [Example 84, 5,7-dimethoxy-2-(4-methoxy-3,5-dimethylphenyl)quinazolin-4(3H)-one] | Active
28 | COc1cc(OC)c2c(=O)[nH]c(-c3cc(C)c(N)c(C)c3)nc2c1 [Example 85, 2-(4-amino-3,5-dimethylphenyl)-5,7-dimethoxyquinazolin-4(3H)-one] | Active
29 | COc1cc(OC)c2c(=O)[nH]c(-c3cc(C)cc(C)c3)nc2c1 [Example 86, 2-(3,5-dimethylphenyl)-5,7-dimethoxyquinazolin-4(3H)-one] | Active
30 | COc1cc(OC)c2c(=O)[nH]c(-c3cc(C)c(/N=C/N(C)C)c(C)c3)nc2c1 [Example 87, (E)-N′-(4-(5,7-dimethoxy-4-oxo-3,4-dihydroquinazolin-2-yl)-2,6-dimethylphenyl)-N,N-dimethylformimidamide] | Active
31 | Cc1cc(-c2nc3ccc(Br)cc3c(=O)[nH]2)cc(C)c1O [Example 88, 6-bromo-2-(4-hydroxy-3,5-dimethylphenyl)quinazolin-4(3H)-one] | Inactive
32 | Cc1cc(-c2nc3ccc(Br)cc3c(=O)[nH]2)cc(C)c1OCCO [Example 89, 6-bromo-2-(4-(2-hydroxyethoxy)-3,5-dimethylphenyl)quinazolin-4(3H)-one] | Inactive
33 | COc1cc(OC)c2c(=O)[nH]c(-c3cc(C)c(OCc4ccccc4)c(C)c3)nc2c1 [Example 90, 2-(4-(benzyloxy)-3,5-dimethylphenyl)-5,7-dimethoxyquinazolin-4(3H)-one] | Inactive
34 | COc1cc(OC)c2c(=O)[nH]c(-c3ccc(OCCO)c(C)c3)nc2c1 [Example 91, 2-(4-(2-hydroxyethoxy)-3-methylphenyl)-5,7-dimethoxyquinazolin-4(3H)-one] | Active
35 | COc1cc(OC)c2c(=O)[nH]c(-c3ccc(O)c(C)c3)nc2c1 [Example 92, 2-(4-hydroxy-3-methylphenyl)-5,7-dimethoxyquinazolin-4(3H)-one] | Active
36 | CNC(=O)c1ccccc1C(=O)NCCOc1c(C)cc(-c2nc3cc(OC)cc(OC)c3c(=O)[nH]2)cc1C [Example 93, N1-(2-(4-(5,7-dimethoxy-4-oxo-3,4-dihydroquinazolin-2-yl)-2,6-dimethylphenoxy)ethyl)-N2-methylphthalamide] | Active
37 | COc1ccc(S(=O)(=O)NCCOc2c(C)cc(-c3nc4cc(OC)cc(OC)c4c(=O)[nH]3)cc2C)cc1 [Example 94, N-(2-(4-(5,7-dimethoxy-4-oxo-3,4-dihydroquinazolin-2-yl)-2,6-dimethylphenoxy)ethyl)-4-methoxybenzenesulfonamide] | Inactive
38 | COc1cc(OC)c2c(=O)[nH]c(-c3cc(C)c(OCCNS(=O)(=O)c4ccc(Cl)cc4)c(C)c3)nc2c1 [Example 95, 4-chloro-N-(2-(4-(5,7-dimethoxy-4-oxo-3,4-dihydroquinazolin-2-yl)-2,6-dimethylphenoxy)ethyl)benzenesulfonamide] | Inactive
